Patent US11524968B2, “Heterocyclic compound as a protein kinase inhibitor” (HK inno.N Corporation, priority 2017, dated 2022)
pIC50: −log10 of the molar value.

Target: JAK1 (Homo sapiens (Human), UniProt P23458)
Assay: Analysis of JAK1 activity inhibition ability (ADP-Glo Kinase Assay)
Format: biochemical
Conditions: JAK1 enzyme, ADP-Glo luminescence, ATP 250 uM, IRS-itide substrate, 30° C. 40 minutes; read-out: IC50
In short: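 JAK1 enzyme, IRS-itide substrate (40 ng/mL) and 250 uM ATP, both as prepared in kinase buffer (Tris-HCl pH 7.5, MgCl2, BSA, DTT), reacted with compound 40 min at 30 °C. ADP formed was detected by ADP-Glo luminescence; IC50 is the concentration giving 50% inhibition versus control.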

Sequence of JAK1 (P23458 whole entry): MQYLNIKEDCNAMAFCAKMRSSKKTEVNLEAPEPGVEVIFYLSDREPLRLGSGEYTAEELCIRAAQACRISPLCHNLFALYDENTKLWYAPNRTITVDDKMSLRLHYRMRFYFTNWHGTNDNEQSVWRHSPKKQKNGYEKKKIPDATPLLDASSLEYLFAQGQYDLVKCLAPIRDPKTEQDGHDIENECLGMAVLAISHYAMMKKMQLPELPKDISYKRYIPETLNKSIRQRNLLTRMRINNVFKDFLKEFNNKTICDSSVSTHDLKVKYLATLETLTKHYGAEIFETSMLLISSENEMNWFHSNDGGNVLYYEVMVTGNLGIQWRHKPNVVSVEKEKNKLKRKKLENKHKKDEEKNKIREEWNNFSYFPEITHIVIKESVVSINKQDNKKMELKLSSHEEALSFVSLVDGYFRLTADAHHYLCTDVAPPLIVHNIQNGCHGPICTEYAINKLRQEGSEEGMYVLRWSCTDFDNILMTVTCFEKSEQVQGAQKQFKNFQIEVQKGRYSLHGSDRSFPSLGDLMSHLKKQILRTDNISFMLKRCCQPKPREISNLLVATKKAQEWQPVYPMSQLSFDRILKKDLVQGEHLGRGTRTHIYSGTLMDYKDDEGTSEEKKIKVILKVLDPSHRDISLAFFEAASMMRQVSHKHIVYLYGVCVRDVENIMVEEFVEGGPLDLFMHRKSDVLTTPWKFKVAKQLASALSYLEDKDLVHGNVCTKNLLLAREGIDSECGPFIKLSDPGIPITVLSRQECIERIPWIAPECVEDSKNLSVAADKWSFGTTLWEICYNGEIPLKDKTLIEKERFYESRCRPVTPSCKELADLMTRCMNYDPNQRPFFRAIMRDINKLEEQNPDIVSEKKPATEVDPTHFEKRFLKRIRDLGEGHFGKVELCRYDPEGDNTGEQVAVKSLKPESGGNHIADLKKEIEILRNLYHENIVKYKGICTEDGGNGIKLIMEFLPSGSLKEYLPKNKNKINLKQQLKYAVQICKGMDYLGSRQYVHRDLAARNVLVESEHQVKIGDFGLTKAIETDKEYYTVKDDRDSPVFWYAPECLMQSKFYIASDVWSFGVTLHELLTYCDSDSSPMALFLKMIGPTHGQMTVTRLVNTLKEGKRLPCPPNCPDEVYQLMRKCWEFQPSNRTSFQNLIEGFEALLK

| SMILES | pIC50 |
| --- | --- |
| CC(C)(C)CS(=O)(=O)Nc1ccc(-c2cc(NC(=O)C3CC3)nc3[nH]ccc23)cc1F [Example 79, N-(4-(4-((2,2-dimethylpropyl)sulfonamido)-3-fluorophenyl)-1H-pyrrolo[2,3-b]pyridin-6-yl)cyclopropanecarboxamide] | > 7.70 |
| O=C(Nc1cc(-c2ccc(NS(=O)(=O)CC3CC3)c(F)c2)c2cc[nH]c2n1)C1CC1 [Example 80, N-(4-(4-((cyclopropylmethyl)sulfonamido)-3-fluorophenyl)-1H-pyrrolo[2,3-b]pyridin-6-yl)cyclopropanecarboxamide] | > 7.70 |
| N#CCC1(CS(=O)(=O)Nc2ccc(-c3cc(NC(=O)C4CC4)nc4[nH]ccc34)cc2F)CC1 [Example 86, N-(4-(4-(((1-(cyanomethyl)cyclopropyl)methyl)sulfonamido)-3-fluorophenyl)-1H-pyrrolo[2,3-b]pyridin-6-yl)cyclopropanecarboxamide] | > 7.70 |
| CC(C)(C#N)CCS(=O)(=O)Nc1ccc(-c2cc(NC(=O)C3CC3)nc3[nH]ccc23)cc1F [Example 87, N-(4-(4-((3-cyano-3-methylbutyl)sulfonamido)-3-fluorophenyl)-1H-pyrrolo[2,3-b]pyridin-6-yl)cyclopropanecarboxamide] | 6.70 to 7.70 |
| N#CC1(CS(=O)(=O)Nc2ccc(-c3cc(NC(=O)C4CC4)nc4[nH]ccc34)cc2)CC1 [Example 88, N-(4-(4-(((1-cyanocyclopropyl)methyl)sulfonamido)phenyl)-1H-pyrrolo[2,3-b]pyridin-6-yl)cyclopropanecarboxamide] | > 7.70 |
| Cc1cc(NS(=O)(=O)C2CC2)ccc1-c1cc(NC(=O)C2CC2)nc2[nH]ccc12 [Example 90, N-(4-(4-(cyclopropanesulfonamido)-2-methylphenyl)-1H-pyrrolo[2,3-b]pyridin-6-yl)cyclopropanecarboxamide] | 6.70 to 7.70 |
| Cc1cc(NS(=O)(=O)C2CCC2)ccc1-c1cc(NC(=O)C2CC2)nc2[nH]ccc12 [Example 91, N-(4-(4-(cyclobutanesulfonamido)-2-methylphenyl)-1H-pyrrolo[2,3-b]pyridin-6-yl)cyclopropanecarboxamide] | 6.70 to 7.70 |
| CCS(=O)(=O)Nc1ccc(-c2cc(NC(=O)C3CC3)nc3[nH]cc(C)c23)cc1 [Example 93, N-(4-(4-(ethylsulfonamido)phenyl)-3-methyl-1H-pyrrolo[2,3-b]pyridin-6-yl)cyclopropanecarboxamide] | 6.70 to 7.70 |
| CCCS(=O)(=O)Nc1ccc(-c2cc(NC(=O)C3CC3)nc3[nH]cc(C)c23)cc1 [Example 94, N-(3-methyl-4-(4-(propylsulfonamido)phenyl)-1H-pyrrolo[2,3-b]pyridin-6-yl)cyclopropanecarboxamide] | 6.70 to 7.70 |
| CCCS(=O)(=O)Nc1ccc(-c2cc(NC(=O)C3CC3)nc3[nH]ccc23)c(C)c1 [Example 95, N-(4-(2-methyl-4-(propylsulfonamido)phenyl)-1H-pyrrolo[2,3-b]pyridin-6-yl)cyclopropanecarboxamide] | 6.70 to 7.70 |
| Cc1cc(NS(=O)(=O)CCCC#N)ccc1-c1cc(NC(=O)C2CC2)nc2[nH]ccc12 [Example 96, N-(4-(4-((3-cyanopropyl)sulfonamido)-2-methylphenyl)-1H-pyrrolo[2,3-b]pyridin-6-yl)cyclopropanecarboxamide] | 6.70 to 7.70 |
| CCS(=O)(=O)Nc1ccc(-c2cc(NC(=O)C3CC3)[n+]([O-])c3[nH]ccc23)cc1F [Example 97, 6-(cyclopropanecarboxamido)-4-(4-(ethylsulfonamido)-3-fluorophenyl)-1H-pyrrolo[2,3-b]pyridine 7-oxide] | 6.70 to 7.70 |
| CCS(=O)(=O)Nc1ccc(-c2cc(NC(=O)C3CC3)nc3[nH]ccc23)cc1C(F)(F)F [Example 98, N-(4-(4-(ethylsulfonamido)-3-(trifluoromethyl)phenyl)-1H-pyrrolo[2,3-b]pyridin-6-yl)cyclopropanecarboxamide] | 6.70 to 7.70 |
| CCCS(=O)(=O)Nc1ccc(-c2cc(NC(=O)C3CC3)nc3[nH]ccc23)c(C)c1F [Example 100, N-(4-(3-fluoro-2-methyl-4-(propylsulfonamido)phenyl)-1H-pyrrolo[2,3-b]pyridin-6-yl)cyclopropanecarboxamide] | 6.70 to 7.70 |
| Cc1cc(NS(=O)(=O)CC2(C#N)CC2)ccc1-c1cc(NC(=O)C2CC2)nc2[nH]ccc12 [Example 102, N-(4-(4-(((1-cyanocyclopropyl)methyl)sulfonamido)-2-methylphenyl)-1H-pyrrolo[2,3-b]pyridin-6-yl)cyclopropanecarboxamide] | > 7.70 |
| Cc1cc(NS(=O)(=O)CC2(CC#N)CC2)ccc1-c1cc(NC(=O)C2CC2)nc2[nH]ccc12 [Example 103, N-(4-(4-(((1-(cyanomethyl)cyclopropyl)methyl)sulfonamido)-2-methylphenyl)-1H-pyrrolo[2,3-b]pyridin-6-yl)cyclopropanecarboxamide] | > 7.70 |
| N#CCCCS(=O)(=O)Nc1cc(F)c(-c2cc(NC(=O)C3CC3)nc3[nH]ccc23)cc1F [Example 104, N-(4-(4-((3-cyanopropyl)sulfonamido)-2,5-difluorophenyl)-1H-pyrrolo[2,3-b]pyridin-6-yl)cyclopropanecarboxamide] | 6.70 to 7.70 |
| N#CCC1(CS(=O)(=O)Nc2c(F)cc(-c3cc(NC(=O)C4CC4)nc4[nH]ccc34)cc2F)CC1 [Example 108, N-(4-(4-(((1-(cyanomethyl)cyclopropyl)methyl)sulfonamido)-3,5-difluorophenyl)-1H-pyrrolo[2,3-b]pyridin-6-yl)cyclopropanecarboxamide] | > 7.70 |
| CCc1cc(NS(=O)(=O)CC2(C#N)CC2)ccc1-c1cc(NC(=O)C2CC2)nc2[nH]ccc12 [Example 109, N-(4-(4-(((1-cyanocyclopropyl)methyl)sulfonamido)-2-ethylphenyl)-1H-pyrrolo[2,3-b]pyridin-6-yl)cyclopropanecarboxamide] | > 7.70 |
| CCc1cc(NS(=O)(=O)CC2(CC#N)CC2)ccc1-c1cc(NC(=O)C2CC2)nc2[nH]ccc12 [Example 110, N-(4-(4-(((1-(cyanomethyl)cyclopropyl)methyl)sulfonamido)-2-ethylphenyl)-1H-pyrrolo[2,3-b]pyridin-6-yl)cyclopropanecarboxamide] | > 7.70 |

More lines, now with the values ahead:

| pIC50 | SMILES |
| --- | --- |
| 6.70 to 7.70 | CCS(=O)(=O)Nc1c(F)cc(-c2cc(NC(=O)C3CC3)nc3[nH]ccc23)cc1F [Example 81, N-(4-(4-(ethylsulfonamido)-3,5-difluorophenyl)-1H-pyrrolo[2,3-b]pyridin-6-yl)cyclopropanecarboxamide] |
| 6.70 to 7.70 | CCCS(=O)(=O)Nc1c(F)cc(-c2cc(NC(=O)C3CC3)nc3[nH]ccc23)cc1F [Example 82, N-(4-(3,5-difluoro-4-(propylsulfonamido)phenyl)-1H-pyrrolo[2,3-b]pyridin-6-yl)cyclopropanecarboxamide] |
| > 7.70 | CCS(=O)(=O)Nc1cc(F)c(-c2cc(NC(=O)C3CC3)nc3[nH]ccc23)cc1F [Example 83, N-(4-(4-(ethylsulfonamido)-2,5-difluorophenyl)-1H-pyrrolo[2,3-b]pyridin-6-yl)cyclopropanecarboxamide] |
| > 7.70 | CCCS(=O)(=O)Nc1cc(F)c(-c2cc(NC(=O)C3CC3)nc3[nH]ccc23)cc1F [Example 84, N-(4-(2,5-difluoro-4-(propylsulfonamido)phenyl)-1H-pyrrolo[2,3-b]pyridin-6-yl)cyclopropanecarboxamide] |
| > 7.70 | N#CC1(CS(=O)(=O)Nc2ccc(-c3cc(NC(=O)C4CC4)nc4[nH]ccc34)cc2F)CC1 [Example 85, N-(4-(4-(((1-cyanocyclopropyl)methyl)sulfonamido)-3-fluorophenyl)-1H-pyrrolo[2,3-b]pyridin-6-yl)cyclopropanecarboxamide] |
| > 7.70 | N#CCC1(CS(=O)(=O)Nc2ccc(-c3cc(NC(=O)C4CC4)nc4[nH]ccc34)cc2)CC1 [Example 89, N-(4-(4-(((1-(cyanomethyl)cyclopropyl)methyl)sulfonamido)phenyl)-1H-pyrrolo[2,3-b]pyridin-6-yl)cyclopropanecarboxamide] |
| 6.70 to 7.70 | Cc1cc(NS(=O)(=O)CC2CC2)ccc1-c1cc(NC(=O)C2CC2)nc2[nH]ccc12 [Example 92, N-(4-(4-((cyclopropylmethyl)sulfonamido)-2-methylphenyl)-1H-pyrrolo[2,3-b]pyridin-6-yl)cyclopropanecarboxamide] |
| > 7.70 | CCc1cc(NS(=O)(=O)CC)ccc1-c1cc(NC(=O)C2CC2)nc2[nH]ccc12 [Example 99, N-(4-(2-ethyl-4-(ethylsulfonamido)phenyl)-1H-pyrrolo[2,3-b]pyridin-6-yl)cyclopropanecarboxamide] |
| 6.70 to 7.70 | CCS(=O)(=O)Nc1ccc(-c2cc(NC(=O)C3CC3)nc3[nH]ccc23)c(C)c1F [Example 101, N-(4-(4-(ethylsulfonamido)-3-fluoro-2-methylphenyl)-1H-pyrrolo[2,3-b]pyridin-6-yl)cyclopropanecarboxamide] |
| > 7.70 | N#CC1(CS(=O)(=O)Nc2cc(F)c(-c3cc(NC(=O)C4CC4)nc4[nH]ccc34)cc2F)CC1 [Example 105, N-(4-(4-(((1-cyanocyclopropyl)methyl)sulfonamido)-2,5-difluorophenyl)-1H-pyrrolo[2,3-b]pyridin-6-yl)cyclopropanecarboxamide] |
| > 7.70 | N#CCC1(CS(=O)(=O)Nc2cc(F)c(-c3cc(NC(=O)C4CC4)nc4[nH]ccc34)cc2F)CC1 [Example 106, N-(4-(4-(((1-(cyanomethyl)cyclopropyl)methyl)sulfonamido)-2,5-difluorophenyl)-1H-pyrrolo[2,3-b]pyridin-6-yl)cyclopropanecarboxamide] |
| 6.70 to 7.70 | N#CC1(CS(=O)(=O)Nc2c(F)cc(-c3cc(NC(=O)C4CC4)nc4[nH]ccc34)cc2F)CC1 [Example 107, N-(4-(4-(((1-cyanocyclopropyl)methyl)sulfonamido)-3,5-difluorophenyl)-1H-pyrrolo[2,3-b]pyridin-6-yl)cyclopropanecarboxamide] |
